Source: patent US9101567B2, “Suppression of cancer growth and metastasis using nordihydroguaiaretic acid derivatives with 7-hydroxystaurosporine” (The Johns Hopkins University, priority 2010, dated 2015)

Key:
caspase-7 [1] = assay: Western blotting of caspase-7 cleavage in HepG2 cells; assay type: cell-based, human; settings: HepG2, 17 hrs; M4N 80 μM, etoposide 20 μM, rapamycin 20 μM, UCN-01 5 μM
Protocol: (§1) The sample volumes were adjusted by the total protein amount. Protein assay was performed by Bio-Rad Protein Assay (Bio-Rad Laboratories, Inc. Hercules, Calif.). The samples were resolved by the standard SDS-polyacrylamide gel electrophoresis and transferred to nitrocellulose membrane (Amersham Biosciences, Bjorkgatan, Sweden). The membranes were blocked with skim milk, and incubated with primary antibodies at 4° C. overnight and then with secondary antibody conjugated with horse radish peroxidase at room temperature for 2 hrs. The signals were detected by western blot chemiluminescence reagent plus (New England Nuclear Life Science Products, Boston, Mass.).
The effect of the combination treatments on cell death and autophagy was examined in two cell lines other than LNCaP cells.

LNCaP tumors = assay: Nude mice orthotopically implanted with LNCaP tumors: life-span and lung metastasis; assay type: in vivo, nude (nu/nu) mice; settings: LNCaP tumor-bearing nude mice; lung sections, hematoxylin and eosin
Protocol: T-cell deficient male nude mice (nu/nu) were obtained from Charles River Laboratories (Wilmington, Mass.). […] For drug combinations (M4N/etoposide, M4N/rapamycin, and M4N/UCN-01), etoposide, rapamycin, or UCN-01 powder was further added to M4N in CPE 25/30 to make a final concentration of M4N (10 mg/ml) respectively with etoposide (4 mg/ml), rapamycin (3.75 mg/ml), or UCN-01 (884 g/ml) in CPE 25/30 formulation. These drugs were intravenously injected into the tail vein of mice at the daily dose of 0.1 ml per mouse. Therefore dosages of each injection were 1 mg/shot (for M4N), 0.4 mg/shot (for etoposide), 0.375 mg/shot (for rapamycin), and 88.4 μg/shot (for UCN-01). The drug injections were performed once every day; beginning at day 3 until day 31 after tumor inoculation for the combination treatment with either etoposide or rapamycin and until day 25 after tumor inoculation for the combination treatment with UCN-01. After this the drugs were injected once a week for etoposide/rapamycin combination treatment and once every three days until day 35 for UCN-01 combination treatment.
LNCaP cells growing subconfluently were collected into the tissue culture medium without fetal bovine serum and antibiotics. The cell concentration was adjusted by the same medium. […]

caspase-3 and 9 = assay: Western blotting of cleaved caspase-3 and 9 in LNCaP cells; assay type: cell-based, human; settings: 17 hrs, M4N 80 μM, etoposide 10 μM, rapamycin 10 μM, UCN-01 2 μM
Protocol: as §1
(§2) The efficacy of the combination treatment of M4N with three anticancer drugs, etoposide, rapamycin, and UCN-01 to induce cell death was examined for LNCaP human prostate cancer cells with TUNEL assay. We chose these anticancer drugs trying to diversify the mechanisms in which the anticancer drugs work (43-45). […] Additionally the effect of caspase-3 and 7 inhibitor, zDEVD-fmk on the cell death induced by the combination treatment was examined (FIG. 1E).

caspase-7 [2] = assay: Enzymatic assay for caspase-7 in extracts of treated LNCaP cells; assay type: cell-based, human; settings: extracts of LNCaP cells treated for 13 hrs
Protocol: The enzymatic assay specific for caspase-7 was performed using a CaspSELECT caspase-7 immunoassay kit (BioVision, Mountain View, Calif.). This assay is based on the […] assay with DEVD-afc. Since DEVD-afc can be a substrate for either caspase-3 or 7, only caspase-7 is selected from cell extracts by anti-caspase-7 antibody which is coated on microtiter plates. Briefly the microtiter plates were coated with anti-caspase-7 antibody overnight at 4 C and blocked with a blocking solution for 30 minutes at room temperature. The cell extracts were applied to the microtiter plates. After washing the microtiter plates, the substrate […] was added to the plates and incubated for about three hours. The fluorescence was measured by a microtiter plate fluorescence reader Infinite 200 (Tecan, Switzerland).
as §2

[3] = tested on: LNCaP human prostate cancer cells; assay: TUNEL assay of cell death in LNCaP cells; assay type: cell-based; settings: 24 hrs, z-DEVD-fmk 50 μM
From the text: LNCaP human prostate cancer, DU145 human prostate cancer, PC3 human prostate cancer, MCF-7 human breast cancer, MDA-MB-231 human breast cancer, MDA-MB-468 human breast cancer, HT29 human colon cancer, K562 human myelogenous leukaemia, HepG2 human hepatoma, Hep3B human hepatoma, and LN229 human glioblastoma cancer cell lines were purchased from American Type Culture Collection (Manassas, Va.). OC24 human ascites ovarian cancer cell line was a generous gift from Dr. XXX (Johns Hopkins University, MD). LNCaP cell line was cultured in RPMI1640 medium supplemented with glucose (14 mM), pyruvate (1 mM), and fetal bovine serum (FBS) (10%). DU145 cell line was cultured in MEM supplemented with non-essential amino acids, glucose (21 mM), pyruvate (1 mM), and FBS (10%). PC3 cell line was cultured in F-12K medium supplemented with FBS (10%). MCF-7 cell line was cultured in DMEM supplemented with FBS (10%). OC24 cell line was cultured in RPMI1640 medium supplemented with FBS (10%) as suspension culture. MDA-MB-231 and 468 cell lines were cultured in Leibovitz's L15 medium supplemented with FBS (10%) under air. HT29 cell line was cultured in DMEM supplemented with glucose (25 mM) and FBS (10%). K562 cell line was cultured in RPMI1640 supplemented with FBS (10%). HepG2 and Hep3B cell lines were cultured in MEM supplemented with FBS (10%). LN229 cell line was cultured in DMEM supplemented with FBS (5%). […]

Row | SMILES | caspase-7 cleavage product (caspase-7 [1]) | mice with obvious lung metastasis (histology) (LNCaP tumors) | expression of cleaved caspase-3 and 9 (caspase-3 and 9) | caspase-7 activation (enzymatic activity) (caspase-7 [2]) | effect on TUNEL-positive cell death induced by the combination treatments [3]
1 | COc1cc([C@@H]2c3cc4c(cc3[C@@H](O[C@@H]3O[C@@H]5CO[C@@H](C)O[C@H]5[C@H](O)[C@H]3O)[C@H]3COC(=O)[C@H]23)OCO4)cc(OC)c1O [etoposide] | small amount | 3 out of 5 | didn't induce the cleavage | only a small amount | 
2 | COC(=O)CC[C@H](NC(=O)[C@H](CC(=O)OC)NC(=O)OCc1ccccc1)C(=O)N[C@H](C(=O)N[C@@H](CC(=O)OC)C(=O)CF)C(C)C [zDEVD-fmk] |  |  |  |  | inhibited a large portion of the cell death
